Measurements reported in patent US6358946B1, “C-6 ring-substituted pyrido[1,2-a]benzimidazole derivatives useful in treating central nervous system disorders” (Ortho-McNeil Pharmaceutical, Inc., priority 1999, dated 2002).
Structures can show the parent of a compound that is named as a salt. Where two headings read alike, the source gives them in different places.

How the values were obtained:
[1] = system: behavior suppressed by punishment (conflict); experiment: Suppression of anxiety in the adult male rat (Vogel conflict test); assay type: in vivo, Male rats; settings: PO (oral) administration, MED >10 = active dose not determined, read-out: Conf. PO (minimum effective dose, MED)
Description: Assay to Measure the Suppression of Anxiety in the Adult Male Rat
The anxiolytic activity of selected compounds of the invention was assessed by determining their ability to release (disinhibit) behavior that had been suppressed by punishment (Vogel, J. R. et al. Psychopharmacology 1971, 21, 1). Male rats were deprived of water for 48 hrs and were deprived of food for 24 hrs prior to testing. After the first 24 hours of water deprivation, they were placed in the conflict chamber for a training period; wherein, they were allowed 200 unpunished licks from a bottle containing tap water. The experiment was run the next day. At the expected time of peak activity, the animals were placed in the chamber and allowed access to tap water. […] Their first lick initiates a 3-min test session. Subsequently, every 20th lick was punished by a 0.2-s shock delivered via the stainless-steel drinking-tube. Vehicle-treated control animals generally were willing to accept a median number of 3 to 8 shocks per test session. […] The Wilcoxon rank-sum test (Mann-Whitney U-test) was used to test for an increase (p<0.05, 1-tailed) in the median number of shocks in drug-treated groups, compared to a concurrently run vehicle-treated group. The biological assay is considered to be valid if the effects of a known anxiolytic (positive control) are detected, within the same experiment. A compound was considered active if there is a significant difference in the median number of shocks tolerated between the drug-treated group and the control group. The minimum effective doses (MED) for the active compounds of the invention are listed in Table 1 under the heading Conf., with PO indicating an oral route of administration. The MED was defined as the minimum dose of the drug-treatment as analyzed using the Wilcoxon rank-sum test (SAS; Statistical Analysis System, version 5.16). If the MED value is greater than 10, an active dose of the compound being tested had not been determined.

[2] = biological target: benzodiazepine site of the GABA-A receptor; experiment: Benzodiazepine receptor binding assay (inhibition of 3H-flunitrazepam binding to membranes); settings: inhibition of 3H-flunitrazepam (ca. 3 nM) binding; over 10,000 = not active
[3] = system: metrazol-induced clonic convulsions; experiment: Suppression of metrazol-induced convulsions in adult male mice; assay type: in vivo, Male CD1 mice; settings: Mus musculus, block of clonic convulsions after s.c. CD90 dose of metrazol
Description: Assay to Determine the Suppression of Metrazol-Induced Convulsions in Adult Male Mice
Compounds of the invention were tested for their ability to reduce metrazol-induced convulsions in mice (Swinyard, E. A. J. Am. Pharm Assoc. 1949, 38, 201). Male CD1 mice, were fasted at least 16 hours, were divided into equal groups and test compounds or vehicle were administered parenterally. Water was not withheld except during the period of observations. At the time of suspected peak activity, anti-pentylenetetrazol (anti-metrazol) activity was evaluated by the subcutaneous administration of the CD90 dose of metrazol (the dose of metrazol was determined from the dose-response curve producing clonic convulsions in 90% of animals that received the corresponding vehicle for this experiment). Metrazol was dissolved in 0.9% sodium chloride solution, and its dose volume was 10 mL/kg. Animals were housed individually for observation of clonic convulsions, tonic convulsions and death for a period of 30 min. Test compounds that blocked the clonic seizure component of the convulsion in at least 50% of the animals were considered active. The biological assay was considered to be valid if the effects of a known anticonvulsant (positive control) were detected, within the same experiment. Activity was reported as percent reduction of clonic convulsions from the vehicle group. The ED50 values of active compounds were calculated by the method of probits (Finney, D. J. Probit Analysis, London: 1971, Cambridge University Press) and are listed in Table 1. […] Compounds active in this screen are considered active anticonvulsion/antiepileptic agents, as well as having potential anxiolytic activity. The data for the test compounds is listed in Table 1 as Met. for either PO (oral) or IP (parenteral) routes of administration.

[4] = IP (parenteral) administration, read-out: Met. IP (ED50)
[5] = PO (oral) administration, read-out: Met. PO (ED50)

| SMILES | minimal effective dose [1] | IC50 [2] | ED50 [3, 4] | ED50 [3, 5] | melting point |
| --- | --- | --- | --- | --- | --- |
| CN1C2=C(C(=O)Nc3ccccc3F)C(=O)CCN2c2cccc(N3CCSCC3)c21 [Compound 15] | 1 mg/kg | 0.23 nM | – | – | – |
| CN1C2=C(C(=O)Nc3ccccc3F)C(=O)CCN2c2cccc(N3CCOCC3)c21 [Compound 12] | – | 0.15 nM | – | – | – |
| COc1ccc(NC(=O)C2=C3Nc4c(N5CCCCC5)cccc4N3CCC2=O)cc1 [Compound 11] | > 3 mg/kg | 34.8 nM | – | – | – |
| O=C1CCN2C(=C1C(=O)Nc1ccccc1F)Nc1c2cccc1-n1ccnc1 [Compound 2, Pyrido[1,2-a]benzimidazole-4-carboxamide, N-2-fluorophenyl-1,2,3,5-tetrahydro-3-oxo-6-(1-imidazolyl)-] | > 10 mg/kg | 3.48 nM | 1 mg/kg | ~5 mg/kg | – |
| COc1ccccc1N1CCN(c2cccc3c2NC2=C(C(=O)Nc4ccccc4F)C(=O)CCN23)CC1 [Compound 6] | > 10 mg/kg | ~1000 nM | – | – | – |
| O=C1CCN2C(=C1C(=O)Nc1nccs1)Nc1c2cccc1-n1ccnc1 [Compound 17] | > 3 mg/kg | 160 nM | – | – | – |
| O=C1CCN2C(=C1C(=O)Nc1ccccc1F)Nc1c(N3CCC4(CC3)OCCO4)cccc12 [Compound 20, Pyrido[1,2-a]benzimidazole-4-carboxamide, N-2-fluorophenyl-1,2,3,5-tetrahydro-3-oxo-6-[8-(1,4-dioxa-8-azaspiro[4,5]decanyl)]-] | 3 mg/kg | 1.11 nM | – | 0.83 mg/kg | – |
| O=C1CCN(c2cccc3c2NC2=C(C(=O)Nc4ccccc4F)C(=O)CCN23)CC1 [Compound 23] | ≤ 3 mg/kg | – | – | – | – |
| O=C1CCN2C(=C1C(=O)Nc1c(F)cccc1F)Nc1c(N3CCOCC3)cccc12 [Compound 4] | ~0.1 mg/kg | 0.23 nM | < 1 mg/kg | < 3 mg/kg | – |
| COCC(=O)N1CCN(c2cccc3c2N(C)C2=C(C(=O)Nc4ccccc4F)C(=O)CCN23)CC1 [Compound 22, Pyrido[1,2-a]benzimidazole-4-carboxamide, N-2-fluorophenyl-1,2,3-trihydro-3-oxo-5-methyl-6-[4-(2-methoxyacetyl)-1-piperazinyl]-] | > 3 mg/kg | 0.24 nM | – | – | – |
| O=C1CCN2C(=C1C(=O)Nc1ccccc1F)Nc1c(N3CCCCC3)cccc12 [Compound 9] | ≤ 3 mg/kg | 69.5 nM | – | – | – |
| CN1C2=C(C(=O)Nc3ccccc3F)C(=O)CCN2c2cccc(N3CCCCC3)c21 [Compound 18] | 0.03 to 0.1 mg/kg | 0.22 nM | – | 0.65 mg/kg | – |
| COc1ccccc1N1CCN(c2cccc3c2NC2=C(C(=O)Nc4c(F)cccc4F)C(=O)CCN23)CC1 [Compound 5] | > 10 mg/kg | < 100 nM | – | – | – |
| O=C1CCN2C(=C1C(=O)Nc1ccccc1F)Nc1c(N3CCSCC3)cccc12 [Compound 14] | ~3 mg/kg | 8.43 nM | – | – | – |
| O=C1CCN2C(=C1C(=O)Nc1ccccc1F)Nc1c(N3CCOCC3)cccc12 [Compound 3] | > 10 mg/kg | 1.05 nM | > 1 mg/kg | 3 mg/kg | – |
| O=C1CCN2C(=C1C(=O)Nc1c(F)cccc1F)Nc1c(N3CCCCC3)cccc12 (as salt: hydrochloride) [Compound 10, Pyrido[1,2-a]benzimidazole-4-carboxamide, N-(2,6-difluorophenyl)-1,2,3,5-tetrahydro-3-oxo-6-(1-piperidinyl)-] | – | – | – | – | 240 to 241 °C |
| CN1C2=C(C(=O)Nc3ccccc3F)C(=O)CCN2c2cccc(-n3ccnc3)c21 [Compound 13, Pyrido[1,2-a]benzimidazole-4-carboxamide, N-2-fluorophenyl-1,2,3-trihydro-3-oxo5-methyl-6-(1-imidazolyl)-] | > 3 mg/kg | 0.13 nM | – | – | – |
| O=C1CCN2C(=C1C(=O)Nc1c(F)cccc1F)Nc1c2cccc1-n1ccnc1 [Compound 1] | – | 0.66 nM | ≤ 1 mg/kg | ~10 mg/kg | – |
| COc1cccc(NC(=O)C2=C3Nc4c(N5CCOCC5)cccc4N3CCC2=O)c1 [Compound 8] | > 10 mg/kg | 2.4 nM | – | – | – |
| CN1C2=C(C(=O)Nc3ccccc3F)C(=O)CCN2c2cccc(N3CCC4(CC3)OCCO4)c21 [Compound 21, Pyrido[1,2-a]benzimidazole-4-carboxamide, N-2-fluorophenyl-1,2,3-trihydro-3-oxo-5-methyl-6-[8-(1,4-dioxa-8-azaspiro[4,6]decanyl)]-] | ≤ 0.3 mg/kg | 0.13 nM | – | – | – |
| O=C1CCN2C(=C1C(=O)Nc1c(F)cccc1F)Nc1c(N3CCCCC3)cccc12 [Compound 10, Pyrido[1,2-a]benzimidazole-4-carboxamide, N-(2,6-difluorophenyl)-1,2,3,5-tetrahydro-3-oxo-6-(1-piperidinyl)-] | 3 mg/kg | 0.41 nM | – | 3.64 mg/kg | – |
| COc1ccc(NC(=O)C2=C3Nc4c(N5CCOCC5)cccc4N3CCC2=O)cc1 [Compound 7] | 0.1 mg/kg | 2.04 nM | – | – | – |
| CN1C2=C(C(=O)Nc3nccs3)C(=O)CCN2c2cccc(-n3ccnc3)c21 [Compound 16] | > 3 mg/kg | 2.12 nM | – | – | – |
